# Assay results published in patent US20250011296A1, “MODULATORS OF MOLECULAR TARGETS EXPRESSED IN METABOLIC AND INFLAMMATORY DISORDERS” (Ohio State Innovation Foundation, priority 2021, published 2025).
# “Also recorded” adds a separate entry of the source. Read-outs that look alike come from different tables or passages of the source.
# Columns and labels:
# [1] = system: HbA1C (glycated hemoglobin) expression; assay: Larval diabetic zebrafish assay, Western blot of HbA1C; assay type: in vivo; conditions: duplicate Western blot (FIG. 7), diabetic zebrafish larvae, 10 μM
# Experimental: (§1) Following isolation, derivatization, and analysis of compounds 41-48 through the in vitro panel of assays, the mace natural products and licarin A derivatives were investigated in the larval diabetic zebrafish assay for potential antidiabetic activity. Western blot analysis of zebrafish expression levels for glycated hemoglobin, metabolic enzymes, and molecular targets NFκB and PPAR-γ was performed to evaluate potential lead improvement and to discover possible mechanisms of action.
# (§2) Wild-type zebrafish were sorted into 24-well microplates with 10 fish per well for a four-phase treatment cycle. At 72 hpf, type 2 diabetes was induced by administering 0.5 mg/mL alloxan in fish water for percutaneous absorption. After three hours of alloxan treatment, phase two of the treatment cycle was initiated by administering 10 μM doses of natural product compounds 41-43 (FIG. 4) or derivatives 45-48 (FIG. 6) with 0.01% DMSO in system water. At 78 hpf, the incubation solution was changed to 10 mg/ml D-glucose for 30 minutes, followed by a phase-four rinse in fresh system w Following the four-phase treatment cycle, zebrafish treatment groups were snap frozen in microcentrifuge tubes on dry ice, stored overnight at −80° C., thawed, and homogenized with 2 μL PBS per animal. Following centrifugation (60 minutes at 4° C. and 17,000 rpm), protein content of the homogenate supernatant was determined using the Pierce BCA Protein Assay kit (Pierce Biotechnology). Homogenates were analyzed by Western blot with equal amounts of total protein (20 μg) in each sample and using 4×LDS loading buffer (NuPAGE Life Technologies). The immunoblot samples were heated at 95° C. for 5 minutes and loaded onto NuPAGE Bis-Tris 4-12% gradient SDS-PAGE gels.
# (§3) Electrophoresis was performed with NuPAGE MES SDS Running Buffer and using the XCell SureLock Mini-Cell Electrophoresis System (Life Technologies). Proteins separated on the gel were transferred to a PVDF membrane using TBST buffer. The blots were blocked in 3% BSA in TBST and subsequently probed overnight with primary antibodies (1:1000 in 1% BSA in TBST) against each target of interest. Following TBST rinses, secondary HRP-conjugated antibodies (1:2000) were applied to the membrane for 60 minutes. The HRP conjugated antibodies were detected using SuperSignal West Femto chemiluminescent substrate (Pierce Biotechnology) and immunoblot images were captured using the luminometer and Lumi Analyst 3.0 software.
# (§4) Band densities were determined using ImageJ Gel Analysis to determine expression levels of each protein of interest. Expression levels of HbA1C, PPAR-γ, and NFκB were organized into a bar graphs (FIG. 5) with band densities calculated in comparison to the housekeeping gene β-actin, normalized to the untreated diabetic group (B) of zebrafish. […].
# PEPCK expression = assay: Larval diabetic zebrafish assay, Western blot of PEPCK; assay type: in vivo; conditions: duplicate Western blot (FIG. 10), diabetic zebrafish larvae, 10 μM
# Experimental: as §1, §2, §3, §4
# PPAR-γ = target: T1, PPAR-γ (Homo sapiens, UniProt P37231); assay: PPAR-γ ELISA assay (PPAR-α,γ,δ Complete Transcription Factor Assay Kit; CCD-112CoN or Hela cells, nuclear extracts); assay type: cell-based
# T1 construct: endogenous in cells; host or cells: CCD-112CoN normal colon cells or HeLa cells (ATCC), nuclear extract
# T1 sequence (P37231 1-505): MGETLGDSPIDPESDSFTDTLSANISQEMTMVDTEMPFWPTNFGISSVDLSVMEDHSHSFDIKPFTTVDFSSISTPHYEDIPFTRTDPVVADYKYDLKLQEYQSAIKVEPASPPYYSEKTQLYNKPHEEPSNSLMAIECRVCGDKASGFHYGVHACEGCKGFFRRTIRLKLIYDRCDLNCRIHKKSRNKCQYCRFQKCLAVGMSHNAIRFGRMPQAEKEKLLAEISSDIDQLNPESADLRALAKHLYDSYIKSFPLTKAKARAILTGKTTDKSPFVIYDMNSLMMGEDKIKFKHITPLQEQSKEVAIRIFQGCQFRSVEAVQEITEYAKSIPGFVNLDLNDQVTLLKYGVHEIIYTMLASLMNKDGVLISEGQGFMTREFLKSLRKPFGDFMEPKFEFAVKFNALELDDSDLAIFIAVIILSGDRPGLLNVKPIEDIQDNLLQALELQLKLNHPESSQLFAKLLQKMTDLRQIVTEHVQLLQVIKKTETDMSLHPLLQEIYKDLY
# Experimental: To evaluate the ability of natural product extracts and compounds to induce specific binding of PPAR-γ transcription factor in nuclear extracts to immunosorbed peroxisome proliferator response element, the PPAR-α,γ,δ Complete Transcription Factor Assay Kit (Cayman Chemical Company) was used according to the kit protocol. 303 CCD-112CoN normal colon cells or Hela cells (ATCC) were treated with mace extracts or isolated compounds for 24 h, nuclear extracts were harvested using the NE-PER kit (Pierce Biotechnology), and protein content equilibrated using the Pierce BCA Protein Assay kit (Pierce Biotechnology). Specific binding was detected through quantification of absorptivity at 630 nm in a BioTek uQuant microplate reader (BioTek Instruments, Inc.). […] Licarin A derivatives 45-48 were screened through the panel of in vitro assays to evaluate their potential as antidiabetic compound leads. […] Methods for the assay were as described above.
# NFκB p65 expression = assay: Larval diabetic zebrafish assay, Western blot of NFκB p65; assay type: in vivo; conditions: duplicate Western blot (FIG. 9), diabetic zebrafish larvae, 10 μM
# Experimental: as §1
# Wild-type zebrafish were sorted into 24-well microplates with 10 fish per well for a four-phase treatment cycle. […] Following centrifugation (60 minutes at 4° C. and 17,000 rpm), protein content of the homogenate supernatant was determined using the Pierce BCA Protein Assay kit (Pierce Biotechnology). Homogenates were analyzed by Western blot with equal amounts of total protein (20 μg) in each sample and using 4×LDS loading buffer (NuPAGE Life Technologies). […]
# Electrophoresis was performed with NuPAGE MES SDS Running Buffer and using the XCell SureLock Mini-Cell Electrophoresis System (Life Technologies). […] The HRP conjugated antibodies were detected using SuperSignal West Femto chemiluminescent substrate (Pierce Biotechnology) and immunoblot images were captured using the luminometer and Lumi Analyst 3.0 software. […]
# GLUT-4 expression = assay: Larval diabetic zebrafish assay, Western blot of GLUT-4; assay type: in vivo; conditions: duplicate Western blot (FIG. 11), diabetic zebrafish larvae, 10 μM
# Experimental: as §1
# Wild-type zebrafish were sorted into 24-well microplates with 10 fish per well for a four-phase treatment cycle. At 72 hpf, type 2 diabetes was induced by administering 0.5 mg/mL alloxan in fish water for percutaneous absorption. After three hours of alloxan treatment, phase two of the treatment cycle was initiated by administering 10 μM doses of natural product compounds 41-43 (FIG. 4) or derivatives 45-48 (FIG. 6) with 0.01% DMSO in system water. […] Following centrifugation (60 minutes at 4° C. and 17,000 rpm), protein content of the homogenate supernatant was determined using the Pierce BCA Protein Assay kit (Pierce Biotechnology). Homogenates were analyzed by Western blot with equal amounts of total protein (20 μg) in each sample and using 4×LDS loading buffer (NuPAGE Life Technologies). […]
# Electrophoresis was performed with NuPAGE MES SDS Running Buffer and using the XCell SureLock Mini-Cell Electrophoresis System (Life Technologies). […] The HRP conjugated antibodies were detected using SuperSignal West Femto chemiluminescent substrate (Pierce Biotechnology) and immunoblot images were captured using the luminometer and Lumi Analyst 3.0 software.
# as §4
# NFκB = target: T2, NFκB (Homo sapiens, UniProt Q04206); assay: NFκB assay (EZ-Detect Transcription Factor Assay kit; TNF-α-treated HeLa cells, nuclear extracts); assay type: cell-based
# T2 construct: endogenous in cells; host or cells: HeLa cells (ATCC), nuclear extract
# Experimental: To assess the ability of natural product extracts and compounds to inhibit the specific binding of activated NFκB transcription factor to the biotinylated consensus sequence, the EZ-Detect™ Transcription Factor Assay kit (Pierce Biotechnology) was used according to the kit manual and established protocol. HeLa cells (ATCC) were treated with each test sample and TNF-α, nuclear extracts harvested using the NE-PER kit (Pierce Biotechnology), and protein content equilibrated using the Pierce BCA Protein Assay kit (Pierce Biotechnology). Specific binding was detected through quantification of chemiluminescent signal in a plate reader (FLUOstar Optima, BMG Labtechnologies GmbH, Inc.).
# PPAR-γ expression = assay: Larval diabetic zebrafish assay, Western blot of PPAR-γ; assay type: in vivo; conditions: diabetic zebrafish larvae, 10 μM
# Experimental: Western blot analysis of zebrafish expression levels for glycated hemoglobin, metabolic enzymes, and molecular targets NFκB and PPAR-γ was performed to evaluate potential lead improvement and to discover possible mechanisms of action.
# as §2, with “After three hours of alloxan treatment, phase two of the treatment cycle was initiated by administering 10 μM doses of natural product compounds 41-43 (FIG. 4) or derivatives 45-48 (FIG. 6) with 0.01% DMSO in system water.” left out, “Technologies).” for “Technologies). The immunoblot samples were heated at 95° C. for 5 minutes and loaded onto NuPAGE Bis-Tris 4-12% gradient SDS-PAGE gels.”
# as §3, §4
# [2] = Table 19, licarin A derivatives at 50 μg/mL in Hela cells
# [3] = Table 13, tested at 50, 5, 0.5 and 0.05 μg/mL
# [4] = Table 20 summary, read-out: NFκBIC50
# T2 sequence (Q04206 whole entry): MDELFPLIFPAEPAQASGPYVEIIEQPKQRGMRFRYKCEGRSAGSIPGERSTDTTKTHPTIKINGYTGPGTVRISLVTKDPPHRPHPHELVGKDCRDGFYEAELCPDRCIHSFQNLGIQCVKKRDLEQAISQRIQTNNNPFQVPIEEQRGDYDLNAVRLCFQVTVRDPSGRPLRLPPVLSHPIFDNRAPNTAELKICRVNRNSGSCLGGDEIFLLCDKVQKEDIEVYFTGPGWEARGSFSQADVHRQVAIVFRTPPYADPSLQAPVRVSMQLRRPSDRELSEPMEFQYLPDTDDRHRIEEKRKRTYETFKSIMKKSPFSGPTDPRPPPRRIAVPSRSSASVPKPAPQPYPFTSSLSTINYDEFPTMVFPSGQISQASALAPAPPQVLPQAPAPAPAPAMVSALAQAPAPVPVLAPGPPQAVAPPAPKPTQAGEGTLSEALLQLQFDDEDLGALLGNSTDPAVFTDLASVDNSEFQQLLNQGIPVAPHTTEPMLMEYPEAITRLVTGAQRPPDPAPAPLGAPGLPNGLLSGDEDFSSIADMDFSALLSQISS
IC50 (NFκB; [3]) [nM],IC50 (NFκB; [4]) [nM],IC50 (NFκB; in vitro NFκB assay) [nM],"PPAR-γ % activation (PPAR-γ; Table 14, isolates at 50 μg/mL) [%]",Compound,HbA1C expression (band density) [1],PEPCK expression (band density) (PEPCK expression),PPAR-γ % activation (PPAR-γ; [2]) [%],"PPAR-γ % activation (PPAR-γ; Table 20 summary, 50 μg/mL) [%]",NFκB p65 expression (band density) (NFκB p65 expression),GLUT-4 expression (band density) (GLUT-4 expression),PPAR-γ expression (band density) (PPAR-γ expression; preliminary Western blot (FIG. 4/5)),NFκB inhibitory activity in vitro (NFκB; HeLa cells),PPAR-γ expression (band density) (PPAR-γ expression; duplicate Western blot (FIG. 8)),"PPAR-γ activity in vitro (PPAR-γ; preliminary screening, 50 μg/mL)"
–,–,–,–,"C/C=C/c1cc(OC)c2c(c1)[C@H](C)[C@@H](c1ccc(OC(C)C)c(OC)c1)O2 [Compound 45, isopropoxy-licarin A]",did not reduce HbA1C expression,indicated a return to normoglycemia,57,57,–,–,–,–,–,–
–,–,–,–,"CCOC(=O)Oc1ccc([C@H]2Oc3c(OC)cc(C=O)cc3[C@@H]2C)cc1OC [Compound 48, licarin A formyl ethyl carbonate]",did not reduce HbA1C expression,retained low PEPCK expression,0,0,lower levels of NFκB,significantly increased capacities for glucose uptake,–,–,–,–
64.4,64.4,64.4,<50,"C=CCc1cc(OC)c(O[C@H](C)[C@@H](O)c2ccc3c(c2)OCO3)c(OC)c1 [Compound 43, erythro-8,4′-oxyneolign-8′-ene]",–,–,–,<50,–,–,greater PPAR-γ expression that 41,–,–,–
–,–,–,–,"C/C=C/c1cc(OC)c2c(c1)[C@H](C)[C@@H](c1ccc(OC(=O)OCC)c(OC)c1)O2 [Compound 47, licarin A ethyl carbonate]",did not reduce HbA1C expression,retained low PEPCK expression,0,0,–,significantly increased capacities for glucose uptake,–,only weak NFκB inhibitory activity,performed surprisingly well,–
0.1,0.1,0.1,–,"C/C=C/c1ccc(O[C@H](C)[C@@H](OC(C)=O)c2ccc3c(c2)OCO3)c(OC)c1 [Compound 44, maceneolignan J]",–,–,–,–,–,–,–,–,–,–
–,–,–,–,"COc1cc([C@H]2Oc3c(OC)cc(C=O)cc3[C@@H]2C)ccc1OC(C)C [Compound 46, isopropoxy-licarin A carbaldehyde]",most effective test samples for decreasing HbA1C; also recorded: significant reduction of HbA1C expression,indicated a return to normoglycemia,29,29,lower levels of NFκB,–,–,–,–,no significant PPAR-γ activity in vitro
